In patent US20070293666A1, “Optical Filter and Its Applications, and Porphyrin Compound Used in Optical Filter” (Mitsui Chemicals, Inc., priority 2004, published 2007):

What was measured:
Assay type in all cases: physicochemical
[1] = Absorption spectrum in chloroform (maximum absorption wavelength, gram absorption coefficient, 550/525 nm coefficient ratio); conditions: chloroform solution
Experimental: (§1) Compounds represented by the compound Nos. 1-1, 1-2, 1-3, 1-4 and 1-7 (Table 1-1) were synthesized in the same manner as in Examples 1-1 and 1-2. With respect to compounds synthesized in Example 1-2 and Synthesis Example 1-1 along with these compounds, the maximum absorption wavelength (λmax), the gram absorption coefficient (εg) and solubility were measured.
(§2) λmax and εg are values in the chloroform solution, while the solubility is weight % based on acetone.
With respect to the compounds represented by the compound Nos. 1-2, 1-3, 1-6 and 1-7 synthesized in Examples 1-2 and 1-3 (corresponding to compounds (3-B), (3-C), (3-E) and (3-F) respectively) along with the obtained compound (3-A), the maximum absorption wavelength and the ratio of the absorption coefficient at a wavelength of 550 nm to the absorption coefficient at a wavelength of 525 nm, which were measured in a chloroform solvent, are shown in Table 3-1. [drawing 26] [drawing 27] [drawing 28] [drawing 29]

Solubility in acetone = test: Solubility in acetone; parameters: key: ∘: completely dissolved; x: not completely dissolved
Experimental: as §1, §2

[2] = Light transmittance of spin-coated optical filter (acrylic adhesive on glass plate); conditions: 0.1 weight % dye diluting agent mixed with acrylic adhesive, dry film 5 μm
Experimental: (§3) A compound represented by the compound No. 1-4 (Table 1-1) was dissolved in a mixed solvent of acetone and toluene (weight ratio 50:50) such that the concentration was 0.1 weight % to give a dye-containing diluting agent. An acrylic adhesive and the dye-containing diluting agent (weight ratio 50:70) were mixed and applied by spin coating at 800 rpm for 30 seconds onto a glass plate, and the resulting material was dried to prepare an optical filter. The dry film thickness of the coating layer was 5 μm. In the above filter, light transmittance was measured by using a spectrophotometer (UV-3100, manufactured by Shimadzu Corporation). Light transmittance in a wavelength of 550 nm was 47.2%.
as §3, with “2-12” for “1-4”, “2-2) synthesized in the same manner as in Examples 2-1 and 2-2” for “1-1)”, “plate” for “plate,”, “Light transmittance in a wavelength of 550 nm was 47.2%.” left out

SMILES: CCCCCCCCCCOc1ccc(C2=c3nc(c4c5cccc6cccc(c3=4)c65)C(c3ccc(OCCCCCCCCCC)cc3)=c3c4c(c5[n]3[Cu][n]3c2c2c(c3C(c3ccc(OCCCCCCCCCC)cc3)=c3nc(c6c7cccc8cccc(c3=6)c87)C=5c3ccc(OCCCCCCCCCC)cc3)-c3cccc5cccc-2c35)-c2cccc3cccc-4c23)cc1 [1-4]
- εg (gram absorption coefficient) [1]: 115,000
- λmax [1]: 552 nm
- Solubility 0.1% (Solubility in acetone; 0.1 weight % based on acetone): ∘
- Solubility 0.2% (Solubility in acetone; 0.2 weight % based on acetone): ∘
- Solubility 1.0% (Solubility in acetone; 1.0 weight % based on acetone): ∘
- Light transmittance in a wavelength of 550 nm [2]: 47.2%
